“And” between values parts separate entries of the source, which are not always exact repeats. Equal entries are not always repeated.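 Five compound concentrations were applied to cells in 96-well plates for 48 hours; endpoints were derived by simple linear interpolation of the resulting dose-response curve. GI50 = concentration required for 50% inhibition of growth. TGI denotes the concentration required for complete inhibition of growth.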
Test system: HCC-2998 colon
Experiment: NCI tumour cell line growth inhibition, 48 h

Row | SMILES | TGI | GI50
1 | CC1(C)OC(=O)C(=C2CCC(C(=O)Nc3cccc(C(F)(F)F)c3)N2)C(=O)O1 (configuration not stated) | > 100 µM | 
2 | CN(C)CCN1CCc2c([nH]c3ccccc23)C1c1cccnc1 (configuration not stated) | > 100 µM | 
3 | CCN(c1ccccc1)[C@H]1C(=O)N(c2ccc([N+](=O)[O-])cc2)[C@H]1c1ccc(OC)cc1 | > 100 µM | 
4 | C[C@H]1CC[P+](C)(c2ccccc2)C1 (some centres not stated) | > 100 µM | 
5 | COc1cccc(/C=N\NC(=O)C(C)SC(C)C(=O)N/N=C/c2cccc(OC)c2)c1 (configuration not stated) | 47.5 µM | 
6 | COc1cc2c(c(OC)c1OC)C(=O)NCCC2 | > 100 µM | 
7 | Cc1nc2ccccc2c(=O)n1/N=C(\N=Nc1cc(Cl)ccc1Cl)c1ccccc1 | > 100 µM | 
8 | O=c1[nH]cnc2n[nH]nc12 | > 74.7 µM | 
9 | O=C(/C=C/c1ccccc1O)c1ccccc1Cl | > 100 µM | 
10 | CCCCC1(C(NC(=O)c2ccccc2Cl)c2ccncc2)C(=O)N(c2ccccc2)N(c2ccccc2)C1=O (configuration not stated) | > 100 µM | 
11 | COc1ccc(/C=N/NS(=O)(=O)c2ccccc2)cc1 | > 100 µM | 
12 | COc1ccccc1NC(=O)C1=C(C)NC(C)=C(C(=O)Nc2ccccc2OC)C1c1ccco1 | 40.7 µM | 
13 | C1=CC2CCC1CN2CCC1CNc2ccccc21 (configuration not stated) | > 100 µM | 
14 | Cc1ccc(OC(=O)N2C/C(=C\c3ccccc3)C(=O)/C(=C/c3ccccc3)C2)cc1 | > 37 µM | 
15 | O=C1C(=O)C2(CC1S(=O)(=O)c1ccccc1)c1ccccc1-c1ccccc12 (configuration not stated) | 30.1 µM | 
16 | O=c1oc2c3ccc4ccccc4c3n(CCN3CCCCC3)c2c2ccccc12 | > 100 µM | 
17 | Cc1ccc(S(=O)C(C)C(Cl)c2ccccc2)cc1 (configuration not stated) | > 100 µM | 
18 | Cc1cc(Cl)ccc1NC(=O)C1C(=O)N(c2ccc(Cl)cc2C)C(=O)/C1=N\NC(N)=S (configuration not stated) | 44.5 µM | 
19 | COc1ccccc1C(=O)N(Cc1ccccc1)c1ccc(Cl)c(C(=O)OC(C)C)c1 | > 100 µM | 
20 | COc1ccc(Br)c(C(=O)N2CCc3ccccc32)c1N | > 100 µM | 
21 | Cc1ccc2ccc(-c3ccccc3)c3c2c1C(=O)c1ccccc1C3=O | > 100 µM | 
22 | OCC(O)C(O)C(O)c1nn(-c2ccc(F)cc2)c2nc3cc(Cl)c(Cl)cc3nc12 (configuration not stated) | > 100 µM | 
23 | NCCCN=c1ccc2c3c1c(O)c1c(O)ccc(=O)c1c3[nH]n2CCNCCO | 11.4 µM and 26.8 µM | 1.6 µM and 3.18 µM
24 | COc1ccc(C2Cc3cc(OC)c(OC)c(OC)c3C2)cc1 (configuration not stated) | > 100 µM | 

Test system: MALME-3M melanoma
Experiment: NCI tumour cell line growth inhibition, 48 h

Row | SMILES | TGI [µM]
25 | CC1(C)OC(=O)C(=C2CCC(C(=O)Nc3cccc(C(F)(F)F)c3)N2)C(=O)O1 (configuration not stated) | > 100
26 | CCN(c1ccccc1)[C@H]1C(=O)N(c2ccc([N+](=O)[O-])cc2)[C@H]1c1ccc(OC)cc1 | > 100
27 | COc1ccc(/C=C\c2cc(OC)c(OC)c(OC)c2)cc1 | > 100
28 | C[C@H]1CC[P+](C)(c2ccccc2)C1 (some centres not stated) | > 100
29 | COc1cc(OC)c2c(=O)c3cccc([N+](=O)[O-])c3n(C)c2c1 | > 100
30 | COc1cccc(/C=N\NC(=O)C(C)SC(C)C(=O)N/N=C/c2cccc(OC)c2)c1 (configuration not stated) | > 100
31 | COc1cc2c(c(OC)c1OC)C(=O)NCCC2 | > 100
32 | Cc1nc2ccccc2c(=O)n1/N=C(\N=Nc1cc(Cl)ccc1Cl)c1ccccc1 | > 100
33 | O=c1[nH]cnc2n[nH]nc12 | 46.4
34 | O=C(/C=C/c1ccccc1O)c1ccccc1Cl | > 100
35 | CCCCC1(C(NC(=O)c2ccccc2Cl)c2ccncc2)C(=O)N(c2ccccc2)N(c2ccccc2)C1=O (configuration not stated) | > 100
36 | COc1ccc(/C=N/NS(=O)(=O)c2ccccc2)cc1 | > 100
37 | COc1ccccc1NC(=O)C1=C(C)NC(C)=C(C(=O)Nc2ccccc2OC)C1c1ccco1 | > 100
38 | C1=CC2CCC1CN2CCC1CNc2ccccc21 (configuration not stated) | > 100
39 | Cc1ccc(OC(=O)N2C/C(=C\c3ccccc3)C(=O)/C(=C/c3ccccc3)C2)cc1 | > 100
40 | O=C1C(=O)C2(CC1S(=O)(=O)c1ccccc1)c1ccccc1-c1ccccc12 (configuration not stated) | > 10
41 | O=c1oc2c3ccc4ccccc4c3n(CCN3CCCCC3)c2c2ccccc12 | > 88.6
42 | CN1CCc2ccccc2C(C(=O)c2ccc3c(c2)OCO3)C1=O (configuration not stated) | > 100
43 | Cc1cc(Cl)ccc1NC(=O)C1C(=O)N(c2ccc(Cl)cc2C)C(=O)/C1=N\NC(N)=S (configuration not stated) | 49.7
44 | COc1ccccc1C(=O)N(Cc1ccccc1)c1ccc(Cl)c(C(=O)OC(C)C)c1 | 85.9
45 | COc1ccc(Br)c(C(=O)N2CCc3ccccc32)c1N | > 100
46 | Cc1ccc2ccc(-c3ccccc3)c3c2c1C(=O)c1ccccc1C3=O | > 100
47 | OCC(O)C(O)C(O)c1nn(-c2ccc(F)cc2)c2nc3cc(Cl)c(Cl)cc3nc12 (configuration not stated) | 23.5
48 | NCCCN=c1ccc2c3c1c(O)c1c(O)ccc(=O)c1c3[nH]n2CCNCCO | 6
49 | COc1ccc(C2Cc3cc(OC)c(OC)c(OC)c3C2)cc1 (configuration not stated) | > 100

Test system: SK-MEL-2 melanoma
Experiment: NCI tumour cell line growth inhibition, 48 h

Row | SMILES | TGI [µM]
50 | CC1(C)OC(=O)C(=C2CCC(C(=O)Nc3cccc(C(F)(F)F)c3)N2)C(=O)O1 (configuration not stated) | > 100
51 | CCN(c1ccccc1)[C@H]1C(=O)N(c2ccc([N+](=O)[O-])cc2)[C@H]1c1ccc(OC)cc1 | > 100
52 | COc1ccc(/C=C\c2cc(OC)c(OC)c(OC)c2)cc1 | > 100
53 | C[C@H]1CC[P+](C)(c2ccccc2)C1 (some centres not stated) | > 100
54 | COc1cc(OC)c2c(=O)c3cccc([N+](=O)[O-])c3n(C)c2c1 | > 100
55 | COc1cccc(/C=N\NC(=O)C(C)SC(C)C(=O)N/N=C/c2cccc(OC)c2)c1 (configuration not stated) | > 62.6
56 | Cc1cc(C)nc(NS(=O)(=O)c2ccc(Nc3c4ccccc4nc4c(C(=O)NCCN(C)C)cccc34)cc2)n1 | 19.1
57 | COc1cc2c(c(OC)c1OC)C(=O)NCCC2 | > 100
58 | Cc1nc2ccccc2c(=O)n1/N=C(\N=Nc1cc(Cl)ccc1Cl)c1ccccc1 | > 100
59 | O=C1CCC(=O)N1Sc1ccccc1 | > 100
60 | O=c1[nH]cnc2n[nH]nc12 | 32
61 | O=C(/C=C/c1ccccc1O)c1ccccc1Cl | > 100
62 | CCCCC1(C(NC(=O)c2ccccc2Cl)c2ccncc2)C(=O)N(c2ccccc2)N(c2ccccc2)C1=O (configuration not stated) | > 100
63 | COc1ccc(/C=N/NS(=O)(=O)c2ccccc2)cc1 | > 100
64 | COc1ccccc1NC(=O)C1=C(C)NC(C)=C(C(=O)Nc2ccccc2OC)C1c1ccco1 | 31.4
65 | C1=CC2CCC1CN2CCC1CNc2ccccc21 (configuration not stated) | > 100
66 | Cc1ccc(OC(=O)N2C/C(=C\c3ccccc3)C(=O)/C(=C/c3ccccc3)C2)cc1 | > 100
67 | O=C1C(=O)C2(CC1S(=O)(=O)c1ccccc1)c1ccccc1-c1ccccc12 (configuration not stated) | 33.8
68 | O=c1oc2c3ccc4ccccc4c3n(CCN3CCCCC3)c2c2ccccc12 | 65.6
69 | Cc1ccc(S(=O)C(C)C(Cl)c2ccccc2)cc1 (configuration not stated) | > 100
70 | CN1CCc2ccccc2C(C(=O)c2ccc3c(c2)OCO3)C1=O (configuration not stated) | > 100
71 | COc1ccccc1C(=O)N(Cc1ccccc1)c1ccc(Cl)c(C(=O)OC(C)C)c1 | 40.5
